Assay results from patent US20230399312A1, “SUBSTITUTED PYRIMIDINES AND METHODS OF USE” (THERAVANCE BIOPHARMA R&D IP, LLC, priority 2020, published 2023).

Legend:
[1] = biological target: T1, recombinant human ALK5 (TGF-βR1) protein (Homo sapiens, UniProt P36897); experiment: Biochemical ALK5 (TGF-βR1) assay to measure pKi (LANCE Ultra ULight kinase assay); settings: apparent pKi, converted from pIC50 by Cheng-Prusoff
T1 construct: purchased Life Technologies PR9075A
T1 sequence (P36897 34-503): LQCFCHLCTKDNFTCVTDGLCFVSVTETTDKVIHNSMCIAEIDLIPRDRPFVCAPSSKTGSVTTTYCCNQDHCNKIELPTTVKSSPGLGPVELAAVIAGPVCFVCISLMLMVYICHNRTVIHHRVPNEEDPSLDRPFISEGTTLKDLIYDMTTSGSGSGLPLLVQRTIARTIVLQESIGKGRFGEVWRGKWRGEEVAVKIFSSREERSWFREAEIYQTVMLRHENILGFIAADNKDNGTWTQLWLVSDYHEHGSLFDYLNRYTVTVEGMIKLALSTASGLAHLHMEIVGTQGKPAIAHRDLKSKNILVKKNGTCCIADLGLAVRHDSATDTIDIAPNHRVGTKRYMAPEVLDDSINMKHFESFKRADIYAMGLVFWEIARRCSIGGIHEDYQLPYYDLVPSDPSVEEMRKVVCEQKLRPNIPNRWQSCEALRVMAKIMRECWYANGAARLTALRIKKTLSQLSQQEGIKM
Summary of the method: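 Enzyme was preincubated with compound for 60 min at room temperature, then ATP (added from a 125 μM 5× stock with 2 mM DTT) started a 60 min reaction at 37 °C. EDTA plus Eu-anti-phospho-Topo2α (Thr1342) antibody stopped it; TR-FRET pIC50 values were converted to pKi by Cheng-Prusoff.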

[2] = system: TGF-β-stimulated SMAD3 phosphorylation in BEAS-2B cells; experiment: Cellular ALK5 potency assay, inhibition of TGF-β stimulated pSMAD3 formation in BEAS-2B cells; assay type: cell-based; settings: Homo sapiens, pSMAD3, TGF-β 10 ng/mL, read-out: BEAS2B pIC50 (converted)
Summary of the method: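 Cells were seeded overnight, rinsed into HEPES/BSA-supplemented HBSS, and dosed with serially diluted compound for 1 h at 37 °C, 5% CO2. TGF-β stimulation (10 ng/mL final) followed for 30 min, then lysis and AlphaLISA pSMAD3 measurement; potency reported as pIC50.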

Ki [1] [nM]	Structure (SMILES)	IC50 [2] [nM]
0.0398 to 0.316	Cc1cccc(-c2nccc(Nc3ccnc(Nc4ccc(NC5CNC5)cc4)n3)n2)n1 [Compound 199, N2-[4-(azetidin-3-ylamino)phenyl]-N4-[2-(6-methyl-2-pyridyl)pyrimidin-4-yl]pyrimidine-2,4-diamine]	25.1 to 158
0.0398 to 0.316	Cc1cccc(-c2nccc(Nc3ccnc(Nc4ccc(CN5CCN[C@@H](C(=O)O)C5)cc4)n3)n2)n1 [Compound 200, (2R)-4-[[4-[[4-[[2-(6-methyl-2-pyridyl)pyrimidin-4-yl]amino]pyrimidin-2-yl]amino]phenyl]methyl] piperazine-2-carboxylic acid]	200 to 1260
0.398 to 3.16	COC(=O)C1CN(Cc2ccc(Nc3nccc(Nc4ccnc(-c5cccc(C)n5)n4)n3)cc2)CCN1C (stereo not shown) [Compound 201, methyl 1-methyl-4-[[4-[[4-[[2-(6-methyl-2-pyridyl)pyrimidin-4-yl]amino]pyrimidin-2-yl]amino]phenyl]methyl] piperazine-2-carboxylate]	25.1 to 158
0.0398 to 0.316	Cc1cccc(-c2nccc(Nc3ccnc(Nc4ccc(N(C)CC5CNC5)cc4)n3)n2)n1 [Compound 202, N2-(4-((azetidin-3-ylmethyl)(methyl)amino)phenyl)-N4-(2-(6-methylpyridin-2-yl)pyrimidin-4-yl)pyrimidine-2,4-diamine]	25.1 to 158
0.0398 to 0.316	Cc1cccc(-c2nccc(Nc3ccnc(Nc4cccc(NC(=O)C5(O)CCNC5)c4)n3)n2)n1 (stereo not shown) [Compound 203, 3-hydroxy-N-[3-[[4-[[2-(6-methyl-2-pyridyl)pyrimidin-4-yl]amino]pyrimidin-2-yl]amino]phenyl]pyrrolidine-3-carboxamide]	≤ 20
0.0398 to 0.316	COC(=O)C1CNCCN1c1ccc(Nc2nccc(Nc3ccnc(-c4cccc(C)n4)n3)n2)cc1 (stereo not shown) [Compound 204, methyl 1-[4-[[4-[[2-(6-methyl-2-pyridyl)pyrimidin-4-yl]amino]pyrimidin-2-yl]amino]phenyl]piperazine-2-carboxylate]	25.1 to 158
0.0398 to 0.316	Cc1cccc(-c2nccc(Nc3ccnc(Nc4ccc(N5CCNCC5)c(CC(=O)OCC(C)C)c4)n3)n2)n1 [Compound 205, isobutyl 2-[5-[[4-[[2-(6-methyl-2-pyridyl)pyrimidin-4-yl]amino]pyrimidin-2-yl]amino]-2-piperazin-1-yl-phenyl]acetate]	25.1 to 158
0.0398 to 0.316	Cc1cccc(-c2nccc(Nc3ccnc(Nc4csc(NC(=O)C5(CO)CNC5)c4)n3)n2)n1 [Compound 206, 3-(hydroxymethyl)-N-[4-[[4-[[2-(6-methyl-2-pyridyl)pyrimidin-4-yl]amino]pyrimidin-2-yl]amino]-2-thienyl]azetidine-3-carboxamide]	200 to 1260
0.0398 to 0.316	Cc1cccc(-c2nccc(Nc3ccnc(Nc4cc(C(=O)OC5CNC5)cs4)n3)n2)n1 [Compound 207, azetidin-3-yl 5-[[4-[[2-(6-methyl-2-pyridyl)pyrimidin-4-yl]amino]pyrimidin-2-yl]amino]thiophene-3-carboxylate]	25.1 to 158
≤ 0.0316	Cc1cccc(-c2nccc(Nc3ccnc(Nc4ccc(S(=O)(=O)NCCN)cc4)n3)n2)n1 [Compound 208, N-(2-aminoethyl)-4-[[4-[[2-(6-methyl-2-pyridyl)pyrimidin-4-yl]amino]pyrimidin-2-yl]amino]benzenesulfonamide]	≤ 20
0.0398 to 0.316	Cc1cccc(-c2nccc(Nc3ccnc(Nc4ccc(NC(=O)C5(CO)CNC5)cc4)n3)n2)n1 [Compound 209, 3-(hydroxymethyl)-N-(4-((4-((2-(6-methylpyridin-2-yl)pyrimidin-4-yl)amino)pyrimidin-2-yl)amino)phenyl)azetidine-3-carboxamide]	≤ 20
0.0398 to 0.316	Cc1cccc(-c2nccc(Nc3ccnc(Nc4ccc(CN5CCC[C@H](C(=O)O[C@H]6CCN(C)C6)C5)cc4)n3)n2)n1 [Compound 210, [(3S)-1-methylpyrrolidin-3-yl] (3S)-1-[[4-[[4-[[2-(6-methyl-2-pyridyl)pyrimidin-4-yl]amino]pyrimidin-2-yl]amino]phenyl]methyl] piperidine-3-carboxylate]	≤ 20
0.0398 to 0.316	Cc1cccc(-c2nccc(Nc3ccnc(Nc4csc(NC(=O)C5CNC5)c4)n3)n2)n1 [Compound 211, N-[4-[[4-[[2-(6-methyl-2-pyridyl)pyrimidin-4-yl]amino]pyrimidin-2-yl]amino]-2-thienyl]azetidine-3-carboxamide]	25.1 to 158
0.0398 to 0.316	Cc1cccc(-c2nccc(Nc3ccnc(Nc4ccc(S(=O)(=O)N5CCN(C(C)C)CC5)cc4)n3)n2)n1 [Compound 213, N2-[4-(4-isopropylpiperazin-1-yl)sulfonylphenyl]-N4-[2-(6-methyl-2-pyridyl)pyrimidin-4-yl]pyrimidine-2,4-diamine]	25.1 to 158
0.0398 to 0.316	Cc1cccc(-c2nccc(Nc3ccnc(Nc4ccc(CN5CCCC(C(=O)NC6CNC6)C5)cc4)n3)n2)n1 (stereo not shown) [Compound 214, N-(azetidin-3-yl)-1-[[4-[[4-[[2-(6-methyl-2-pyridyl)pyrimidin-4-yl]amino]pyrimidin-2-yl]amino]phenyl]methyl] piperidine-3-carboxamide]	25.1 to 158
0.0398 to 0.316	Cc1cccc(-c2nccc(Nc3ccnc(Nc4ccc(N5CCCC(C(=O)OC6CCNCC6)C5)cc4)n3)n2)n1 (stereo not shown) [Compound 215, 4-piperidyl 1-[4-[[4-[[2-(6-methyl-2-pyridyl)pyrimidin-4-yl]amino]pyrimidin-2-yl]amino]phenyl]piperidine-3-carboxylate]	200 to 1260
0.0398 to 0.316	Cc1cccc(-c2nccc(Nc3ccnc(Nc4csc(C(=O)O[C@H]5CCN(C)C5)c4)n3)n2)n1 [Compound 217, [(3S)-1-methylpyrrolidin-3-yl] 4-[[4-[[2-(6-methyl-2-pyridyl)pyrimidin-4-yl]amino]pyrimidin-2-yl]amino]thiophene-2-carboxylate]	25.1 to 158
0.0398 to 0.316	Cc1cccc(-c2nccc(Nc3ccnc(Nc4ccc(N5CCC(C(=O)OC6CCNCC6)CC5)cc4)n3)n2)n1 [Compound 218, 4-piperidyl 1-[4-[[4-[[2-(6-methyl-2-pyridyl)pyrimidin-4-yl]amino]pyrimidin-2-yl]amino]phenyl]piperidine-4-carboxylate]	25.1 to 158
0.0398 to 0.316	Cc1cccc(-c2nccc(Nc3ccnc(Nc4ccc(N5CCC(CNCc6ccccn6)CC5)cc4)n3)n2)n1 [Compound 219, N4-[2-(6-methyl-2-pyridyl)pyrimidin-4-yl]-N2-[4-[4-[(2-pyridylmethylamino)methyl]-1-piperidyl]phenyl]pyrimidine-2,4-diamine]	25.1 to 158
0.0398 to 0.316	Cc1cccc(-c2nccc(Nc3ccnc(Nc4ccc(N5CCC(C(=O)OC6CNC6)CC5)cc4)n3)n2)n1 [Compound 220, azetidin-3-yl 1-[4-[[4-[[2-(6-methyl-2-pyridyl)pyrimidin-4-yl]amino]pyrimidin-2-yl]amino]phenyl]piperidine-4-carboxylate]	25.1 to 158
0.0398 to 0.316	Cc1cccc(-c2nc(C)cc(Nc3ccnc(Nc4ccc(N5CCN(C)CC5)cc4)n3)n2)n1 [Compound 222, N4-[6-methyl-2-(6-methyl-2-pyridyl)pyrimidin-4-yl]-N2-[4-(4-methylpiperazin-1-yl)phenyl]pyrimidine-2,4-diamine]	25.1 to 158
≤ 0.0316	Cc1cccc(-c2nccc(Nc3ccnc(Nc4ccc5c(c4)CCN(C(C)C)CC5)n3)n2)n1 [Compound 223, N2-(3-isopropyl-2,3,4,5-tetrahydro-1H-benzo[d]azepin-7-yl)-N4-(2-(6-methylpyridin-2-yl)pyrimidin-4-yl)pyrimidine-2,4-diamine]	25.1 to 158
0.0398 to 0.316	Cc1cccc(-c2nccc(Nc3ccnc(Nc4ccc(CN5CCC[C@H](C(=O)O)C5)cc4)n3)n2)n1 [Compound 224, (3S)-1-[[4-[[4-[[2-(6-methyl-2-pyridyl)pyrimidin-4-yl]amino]pyrimidin-2-yl]amino]phenyl]methyl] piperidine-3-carboxylic acid]	200 to 1260
0.0398 to 0.316	Cc1cccc(-c2nccc(Nc3ccnc(Nc4ccc5c(c4)NCCC5)n3)n2)n1 [Compound 225, N4-[2-(6-methyl-2-pyridyl)pyrimidin-4-yl]-N2-(1,2,3,4-tetrahydroquinolin-7-yl)pyrimidine-2,4-diamine]	25.1 to 158
3.98 to 31.6	Cc1cccc(-c2nccc(Nc3ccnc(Nc4nc(C)cs4)n3)n2)n1 [Compound 226, N4-[2-(6-methyl-2-pyridyl)pyrimidin-4-yl]-N2-(4-methylthiazol-2-yl)pyrimidine-2,4-diamine]	25.1 to 158

Structure (SMILES)	Ki [1] [nM]	IC50 [2] [nM]
Cc1cccc(-c2nccc(Nc3ccnc(Nc4ccc(N5C6CCC5CNC6)cc4)n3)n2)n1 [Compound 221, N2-(4-(3,8-diazabicyclo[3.2.1]octan-8-yl)phenyl)-N4-(2-(6-methylpyridin-2-yl)pyrimidin-4-yl)pyrimidine-2,4-diamine]	0.0398 to 0.316	25.1 to 158
